Experimental data: patent US20240082242A1, “COMBINATION THERAPIES” (IMBRIA PHARMACEUTICALS, INC., priority 2021, published 2024)

Tests used:
[1] = system: fatty acid beta oxidation; experiment: PET imaging of 18F-FTHA uptake after CV-8972 injection; format: in vivo, rat
Text: (§1) The effects of CV-8972, a partial fatty acid oxidation inhibitor, on glucose and fatty acid metabolism were investigated using non-invasive positron emission tomography (PET) imaging. The PET radiotracer ^18F fluorodeoxyglucose (FDG), a radiolabeled glucose analog, was used to evaluate cardiac glucose metabolism, and the PET radiotracer ^18F fluoro-6-thia-heptadecanoic acid (FTHA), a radiolabeled long-chain fatty acid (LCFA) analog, was used to evaluate fatty acid beta oxidation. Both radiotracers are “entrapped” in cells in a way that is proportional to either glucose or fatty acid metabolism. For example, high ^18F-FDG or ^18F-FTHA signal indicates high glucose or fatty acid metabolism, respectively, while, conversely, diminished uptake indicates lower metabolism.
(§2) PET imaging with ^18F-FDG and ^18F-FTHA was performed in healthy rats. PET images were acquired dynamically for 120 minutes after tracer injection to capture dynamic changes in cardiac glucose and fatty acid metabolism. For each tracer, animals were imaged twice, once after injection of vehicle (phosphate buffered saline, PBS) or CV-8972 (80 mg/3 mL/kg), subcutaneously injected to the back of animals 15 min prior to PET imaging.
(§3) FIG. 1 is a schematic of the positron emission tomography (PET) imaging study design used to monitor the uptake of ^18F-fluorodeoxyglucose (^18F-FDG) and ^18F-14(R,S)-(18)F-fluoro-6-thia-heptadecanoic acid (^18F-FTHA) into heart tissue of rats in response to treatment with CV-8972. To monitor uptake of ^18F-FDG, rats were fasted for 16 hours prior to day 1. On day 1, rats were given phosphate-buffered saline (PBS) at time 0, and 15 minutes later ^18F-FDG was administered and traced in vivo by PET for two hours following administration. Rats were again fasted for 16 hours prior to day 3. On day 3, rats were given CV-8972 at time 0, and 15 minutes later ^18F-FDG was administered and traced in vivo by PET for two hours following administration. Immediately following the second PET scan, the animals were sacrificed, and the levels of gamma radioactivity in the blood, heart, and skeletal muscle were measured. To monitor uptake of ^18F-FTHA, rats were allowed to eat prior to day 1. On day 1, rats were given PBS at time 0, and 15 minutes later ^18F-FTHA was administered and traced in vivo by PET for two hours following administration. Rats were allowed to eat prior to day 3. On day 3, rats were given CV-8972 at time 0, and 15 minutes later ^18F-FTHA was administered and traced in vivo by PET for two hours following administration. Immediately following the second PET scan, the animals were sacrificed, and the levels of gamma radioactivity in the blood, heart, and skeletal muscle were measured.
(§4) Dynamic positron emission tomography/computed tomography (PET/CT) imaging was obtained with a Mediso nanoScan 122S PET/CT system. Cardiac glucose and fatty acid metabolisms were visualized by tracking ^18F-FDG (NCM-USA LLC, NY, USA) and ^18F-FTHA (Department of Radiology, New York University School of Medicine, NY, USA), respectively. Before the ^18F-FDG scan, rats were fasted overnight for at least 16 hours to minimize the physiological uptake of the radiotracer to cardiomyocyte. Either vehicle (phosphate buffered saline) or CV-8972 (80 mg/3 mL/kg) was subcutaneously injected to the back of animals 15 min prior to PET imaging. Animals were then placed on the scanner, and high-resolution CT images was obtained. Following, dynamic PET was started at the same time as the injection of ^18F-FDG (37 MBq, 1 mCi/0.5 mL/body) via tail vein and recorded for 120 min. Each animal underwent 2 scan sessions, one after vehicle injection and another after CV-8972 injection, with 2 or more days interval (average 2.9 days, 2-6 days). The order of the 2 imaging sessions was randomized among rats. For ^18F-FTHA (37 MBq, 1 mCi/0.5 mL/body), animals received 2 scan sessions under same conditions as those for ^18F-FDG except for fed condition. […]

[2] = system: TAC-induced heart failure in mice; experiment: Transverse aortic constriction (TAC) model of heart failure; format: in vivo, mouse; conditions: for left ventricular fractional shortening (FS) at Week 6: CV-8972 10, CV-8814 7.5 mg/kg/day, control 34%±3%; for fibrosis of myocardial tissue after six weeks: Masson's trichome, percentage of fibrotic heart tissue, control 10.7±1; for isovolumic relaxation time (IVRT) at Week 6: control 35±1; for isovolumic relaxation time (IVRT) at the three-week assessment: control 36±1; for left ventricular ejection fraction (EF) throughout the six-week study: minipump
Experimental: Studies were conducted to evaluate and compare the efficacy of the reference compound TMZ with CV-8814 and CV-1018972 on ventricular remodeling, preservation of heart function and prevention of fibrosis in a transverse aortic constriction (TAC) model of heart failure in mice.
FIG. 30 is a schematic of the transverse aortic constriction (TAC) protocol used to test the ability of various compounds to protect the heart against heart failure. The aortic arc was exposed via midline incision in the chest cavity of anesthetized mice. A 27-gauge needle was tied against the transverse aorta and then promptly removed to create a ligature constriction. In vivo cardiac function was assessed by transthoracic echocardiography performed at 24-hour, 3-week, and 6-week time-points after TAC. Ventricular remodeling was determined by evaluation of heart weights (HW) and heart weight to body weight ratios (HW/BW). At study termination, hearts were excised, fixed, sectioned at 6 μm and stained with Masson's trichome. The area of fibrosis in myocardial tissue was measured by computerized planimetry on five random fields per heart. A total of 65 to 75 fields were analyzed per treatment group and differences were analyzed by Student's t-test.
Three separate studies were performed to evaluate the efficacy of single agents and combinations with metabolic enhancers in the TAC model of heart failure. In the first study, mice were treated with either trimetazidine alone or trimetazidine+nicotinamide+succinate. In the second study, mice were treated with CV-8814 alone or trimetazidine+nicotinic acid+succinate. In the third study, mice were treated with […], CV-8814, or CV-8972. Overall, the activities of trimetazidine, CV-8814, and CV-8972 on most study endpoints were in good agreement across the three studies. In the third study, the three compounds were analyzed at equivalent mg/kg/day doses on a formula weight basis: 6 mg/kg/d for trimetazidine, 7.5 mg/kg/day for CV-8814; and 10 mg/kg/day for CV-8972. Therefore, the results from the third study are summarized here.

[3] = mouse, iv, 10 mg/kg
[4] = system: radioactivity in the heart, skeletal muscle, and blood; experiment: Ex vivo quantification of radiotracer uptake by gamma counting; format: in vivo, rat
Experimental: Shortly after the final PET/CT scan, blood was taken from abdominal vein under anesthesia with isoflurane (3-5%), and then animals were euthanized by exsanguination. After thorough perfusion with PBS, the heart and skeletal muscle (right brachium) were harvested. Radioactivity in the heart, muscle, and blood was determined with a Wizard2 2480 automatic gamma counter (Perkin Elmer, Waltham, MA) and % ID/g was calculated for each organ.
The radioactivity in the heart, skeletal muscle, and blood was also determined with a gamma counter shortly after PET/CT imaging for further ex vivo validation.

[5] = system: cardiac glucose metabolism; experiment: PET imaging of 18F-FDG uptake after CV-8972 injection; format: in vivo, rat
Text: as §1, §2, §3, §4

explanted mouse hearts = experiment: Langendorff ischemia-reperfusion protocol; conditions: for infarct size: 20 μM (each) perfusion, triphenyltetrazolium staining, control 68%; for reduction of myocardial infarct size: 20 μM, vs control
Experimental: Studies were conducted to evaluate the effect of CV-8814, a pFOX inhibitor, on protecting heart tissue from ischemia/reperfusion (I/R) injury. Similar studies were performed with trimetazidine (TMZ) as a representative pFOX reference compound. Studies were performed with TMZ alone and TMZ in combination with the metabolic enhancers (e.g., nicotinic acid) for a comparison of single agent and combination agent pharmacologic potencies. FIG. 25 is a schematic of the Langendorff Ischemia-Reperfusion protocol used to test the ability of various compounds to protect the heart from ischemic injury. Test compounds were dissolved at 20 μM in Krebs-Henseleit buffer and perfused through the tissue of mouse hearts at a constant pressure starting at time 0. For each treatment group, 10-18 hearts were tested. A Mikro-tip catheter was inserted into left ventricles to measure cardiac functions, including heart rate, coronary flow, left ventricular systolic and end-diastolic pressure, at the end of the baseline perfusion at 20 minutes. […] At the end of perfusion, hearts were cross-sectioned into five slices, and infarct size was measured by computerized planimetry of triphenyltetrazolium stained heart tissue sections. The concept of combining a pFOX inhibitor with metabolic enhancers (e.g. nicotinamide, nicotinic acid, and succinate) was evaluated in combination Langendorff I/R studies. The combinations included TMZ/nicotinamide/succinate (all at a concentration of 20 μM; coded TNS) and TMZ/nicotinic acid/succinate (all at a concentration of 20 μM; coded TNC).

[6] = CV-8972 80 mg/kg s.c. vs PBS, fed rats
[7] = gamma counter shortly after PET/CT, CV-8972 80 mg/kg s.c., mean±SD
[8] = gamma counting, CV-8972 vs control
[9] = static analysis at 30 minutes, CV-8972 vs saline
[10] = two-compartment model, CV-8972 80 mg/kg s.c. vs PBS
[11] = 20 μM perfusion, initial single agent study

## COc1ccc(CN2CCN(CCOC(=O)c3cccnc3)CC2)c(OC)c1OC [CV-8972, 2-[4-[(2,3,4-trimethoxyphenyl)methyl]piperazin-1-yl]ethyl pyridine-3-carboxylate]
[1]; CV-8972 80 mg/kg s.c. vs PBS
  18F-FTHA blood signal, last 30 minutes (90-120 minutes): unaffected
  18F-FTHA myocardial signal, last 30 minutes (90-120 minutes): slightly higher without reaching statistical significance
[1]; [6]
  18F-FTHA signal in the blood, single dynamic frames: did not clearly affect
  18F-FTHA uptake in the heart, single dynamic frames: no statistically significant changes
  18F-FTHA uptake in the skeletal muscle, single dynamic frames: slightly higher uptake
[1]; CV-8972 80 mg/kg s.c. vs PBS, reached statistical significance
  18F-FTHA signal in the skeletal muscle, last 30 minutes (90-120 minutes): slightly higher signal
[1]; from 18F-FTHA circulating in the blood compartment, followed by washout over 120 min
  initial fold increase of 18F-FTHA PET signal in heart after CV-8972 administration: ~2 fold
[1]; three-compartment model, CV-8972 80 mg/kg s.c. vs PBS
  18F-FTHA uptake into the myocardium and skeletal muscle by kinetic modeling: significantly higher uptake
[2]; CV-8972 10 mg/kg/day, control 37%±3%
  left ventricular fractional shortening (FS) at Week 3: 47%±3%
[2]
  left ventricular fractional shortening (FS) at Week 6: 46%±3%
  fibrosis of myocardial tissue after six weeks: 6.6±0.6%
  isovolumic relaxation time (IVRT) at Week 6: 31 ± 2 ms
  isovolumic relaxation time (IVRT) at the three-week assessment: 32 ± 1 ms
[2]; third study
  left ventricular ejection fraction (EF) throughout the six-week study: preserved
[2]; third study, CV-8972 10 mg/kg/day, control 9.1±0.5
  heart weight to body weight ratio: 7.4 ± 0.3 mg/g
[2]; third study, CV-8972 10 mg/kg/day, control 195±12
  left ventricular mass: 156 ± 10 mg
[2]; third study, subcutaneous osmotic minipump, CV-8972 10 mg/kg/day, control 270±14
  heart weight: 225 ± 11 mg
[3]
  conversion of CV-8972 in vivo: rapidly converted to CV-8814
[4]; [7]
  mean radioactivity of the heart, 18F-FDG: 4.25±1.03 % ID/g
  mean radioactivity of the heart, 18F-FTHA: 1.98±0.53 % ID/g
[4]; gamma counting, 18F-FDG and 18F-FTHA
  radioactivity of skeletal muscle and blood vs control: did not show clear differences
[4]; [8]
  fold of heart radioactivity over control, 18F-FDG: 5.6 fold
  fold of heart radioactivity over control, 18F-FTHA: 3.6 fold
[5]; CV-8972 80 mg/3 mL/kg s.c. 15 min before PET, fasted healthy rats, mean±SD
  average SUV of 18F-FDG in the heart at 120 min: 12.56±7.82
[5]; CV-8972 80 mg/kg s.c. vs PBS
  18F-FDG signal in the blood, single dynamic frames: did not clearly affect
  18F-FDG signal in the skeletal muscle and blood, last 30 minutes (90-120 minutes): slightly lower signal
  18F-FDG uptake in skeletal muscle, single dynamic frames: slightly lower
  18F-FDG uptake in the myocardium, last 30 minutes of PET acquisition (90-120 minutes): significantly higher
[5]; CV-8972 80 mg/kg s.c., vs PBS control 0.89±0.62
  fold increase of heart 18F-FDG SUV at 120 min over control group: approximately 14 fold
[5]; [9]
  change in 18F-FDG SUV in skeletal muscle, static analysis: minimal change
  fold increase in 18F-FDG SUV in rat heart tissue, static analysis: 12 fold
[5]; [10]
  18F-FDG myocardial uptake by kinetic modeling: significantly higher myocardial uptake
  18F-FDG skeletal muscle uptake by kinetic modeling: lower

## O=C(O)c1cccnc1 [Nicotinic acid, nicotinic acid, reference compound]
[2]
  fibrosis of myocardial tissue after six weeks: 8.2±1%
[2]; third study
  left ventricular ejection fraction (EF) throughout the six-week study: neither TMZ nor nicotinic acid had a beneficial effect

## COc1ccc(CN2CCN(CCO)CC2)c(OC)c1OC [CV-8814, 2-[4-[(2,3,4-trimethoxyphenyl)methyl]piperazin-1-yl]ethanol]
[2]
  left ventricular fractional shortening (FS) at Week 6: 44%±3%
  fibrosis of myocardial tissue after six weeks: 6.6±0.6%
  isovolumic relaxation time (IVRT) at Week 6: 28 ± 2 ms
  isovolumic relaxation time (IVRT) at the three-week assessment: 33 ± 1 ms
[2]; third study
  left ventricular ejection fraction (EF) throughout the six-week study: preserved
Explanted mouse hearts
  infarct size: 52±4%
  reduction of myocardial infarct size: ~16%
Explanted mouse hearts; [11]
  left ventricular developed pressure (LVDP) at 20 min: 48±8 mmHg
  left ventricular developed pressure (LVDP) at 170 min: 63±5 mm Hg
Explanted mouse hearts; 20 μM perfusion, initial single agent study, control 54±6
  coronary flow at the end of the reperfusion period: 90±14 μl/mL

## COc1ccc(CN2CCNCC2)c(OC)c1OC [TMZ, trimetazidine]
[2]
  fibrosis of myocardial tissue after six weeks: 7.6±1%
[2]; TMZ 6 mg/kg/d
  diastolic function during TAC-induced heart failure: did not preserve diastolic function
  effect on FS: did not have a significant effect
[2]; third study
  left ventricular ejection fraction (EF) throughout the six-week study: neither TMZ nor nicotinic acid had a beneficial effect
Explanted mouse hearts
  infarct size: 56±3%
  reduction of myocardial infarct size: ~9%
Explanted mouse hearts; 20 μM TMZ alone, separate study, printed as TMZ vs. control
  LVDP: 49±5 mm Hg
Explanted mouse hearts; 20 μM each, combination study
  LVDP at T20: 56±6 mm Hg
  LVDP at T170: 49±5 mm Hg
